Measured values published in ChEMBL document CHEMBL3608233, “Potent benzoazepinone γ-secretase modulators with improved bioavailability” (Bioorg Med Chem Lett, 2015).
Values after ≈ are worked out from the molar mass of the structure shown. Values belong to the molecule of their own block, whether it stands above or below them.

Key:
in vivo [1] = details: APP YAC Tg, mouse, brain, 100 mg/kg
in vivo [2] = details: APP YAC Tg, mouse, plasma, 100 mg/kg
[3] = Ratio of drug level in brain to plasma in APP YAC Tg mouse model at 30 mg/kg after 6 hrs; assay type: ADME, organism-based; details: brain and plasma, read-out: BPR
[4] = Drug metabolism in dog hepatocytes assessed as oxidation of benzoazepinone; assay type: ADME, cell-based, Canis lupus familiaris, Hepatocyte
[5] = Drug metabolism in dog urine assessed as oxidation of benzoazepinone; assay type: ADME, tissue-based, Canis lupus familiaris
[6] = Drug metabolism in dog urine assessed as oxidation of methylimidazole; assay type: ADME, tissue-based, Canis lupus familiaris
[7] = Drug metabolism in dog urine assessed as formation of methyl ester cleavage product; assay type: ADME, tissue-based, Canis lupus familiaris
[8] = Drug metabolism in dog hepatocytes assessed as formation of methyl ester cleavage product; assay type: ADME, cell-based, Canis lupus familiaris, Hepatocyte
[9] = Drug uptake in brain of APP YAC Tg mouse model at 30 mg/kg after 6 hrs; assay type: ADME, organism-based; details: read-out: Drug uptake
[10] = Plasma concentration in APP YAC Tg mouse model at 30 mg/kg after 6 hrs; assay type: ADME, organism-based
Canis familiaris = organism: Canis familiaris; details: dog, in vivo, po, 0.5 mg/kg
in vivo [11] = details: Sprague-Dawley, rat, iv, 1 mg/kg
in vivo [12] = details: Sprague-Dawley, rat, iv, 1 mg/kg; remark: listed apart in the source
in vivo [13] = details: Sprague-Dawley, rat
in vivo [14] = details: Sprague-Dawley, rat, po, 2 mg/kg
in vivo [15] = details: beagle, dog, iv
in vivo [16] = details: beagle, dog, iv; remark: listed apart in the source
in vivo [17] = details: beagle, dog
physchem [18] = details: buffer, pH 7
physchem [19] = details: buffer, pH 2
in vitro [20] = details: pig, LLC-PK1
in vitro [21] = details: rat, hepatocytes
in vitro [22] = details: dog, hepatocytes
in vitro [23] = details: human, hepatocytes
in vivo [24] = details: APP YAC Tg, mouse, brain, 50 mg/kg
in vivo [25] = details: APP YAC Tg, mouse, plasma, 50 mg/kg

Compound: COc1cc(-c2cn([C@H]3CCc4c(F)cccc4N(CC(F)(F)F)C3=O)nn2)ccc1-n1cnc(C(F)(F)F)c1
- concentration at 6 h (in vivo [1]): 0.87 µM
- concentration at 6 h (in vivo [2]): 4.5 µM

- Kp at 6 h [3]: 0.3
- Drug metabolism [4]: metabolite_detected
- Drug metabolism [5]: metabolite_detected
- Drug metabolism [6]: metabolite_detected
- Drug metabolism [7]: metabolite_notdetected
- Drug metabolism [8]: metabolite_notdetected
- concentration at 6 h [9]: 1.6 µM
- concentration at 6 h [10]: 5.1 µM
- F (Canis familiaris): BLD
- clearance (in vivo [11]): 38 mL/min/kg
- Vd (in vivo [12]): 4.8 L/kg
- half-life (in vivo [13]): 48 min
- bioavailability (in vivo [14]): 100%
- clearance (in vivo [15]): 98 mL/min/kg
- Vd (in vivo [16]): 5.6 L/kg
- half-life (in vivo [17]): 42 min
- solubility (physchem [18]): 4.2 µM (≈ 2.16 µg/mL)
- solubility (physchem [19]): 170 µM (≈ 87.5 µg/mL)
- Papp (in vitro [20]): 21 ×10⁻⁶ cm/s
- CLint scaled (in vitro [21]): 210 mL/min/kg
- CLint scaled (in vitro [22]): 400 mL/min/kg
- CLint scaled (in vitro [23]): 94 mL/min/kg
Compound: COc1cc(-c2cn([C@H]3CCc4c(F)cccc4N(CC(F)(F)F)C3=O)nn2)ccc1-n1cnc(C)c1

Compound: Cc1cn(-c2ccc(-c3cn([C@H]4CCc5c(F)cccc5N(CC(F)(F)F)C4=O)nn3)cc2F)cn1
- concentration at 6 h (in vivo [24]): 6.8 µM
- concentration at 6 h (in vivo [25]): 15 µM
